Results reported in ChEMBL document CHEMBL6153083, “Synthesis, Structural Modification, and Antismall Cell Lung Cancer Activity of 3-Arylisoquinolines with Dual Inhibitory Activity on Topoisomerase I and II” (J Med Chem, 2025).

What was measured:
NCI-H1048 = assay: Antiproliferative activity against human NCI-H1048 cells incubated for 72 hrs; assay type: functional, cell-based; conditions: NCI-H1048, 72 h
SHP77 = assay: Antiproliferative activity against human SHP77 cells incubated for 72 hrs; assay type: functional, cell-based; conditions: SHP77, 72 h
NCI-H209 = assay: Antiproliferative activity against human NCI-H209 cells incubated for 72 hrs; assay type: functional, cell-based; conditions: NCI-H209, 72 h
NCI-H82 = assay: Antiproliferative activity against human NCI-H82 cells incubated for 72 hrs; assay type: functional, cell-based; conditions: NCI-H82, 72 h
NCI-H446 = assay: Antiproliferative activity against human NCI-H446 cells incubated for 72 hrs; assay type: functional, cell-based; conditions: NCI-H446, 72 h
[1] = Antiproliferative activity against human L02 cells incubated for 72 hrs; assay type: toxicity, cell-based
[2] = Antiproliferative activity against human BEAS-2B cells incubated for 72 hrs; assay type: toxicity, cell-based
NCI-H146 = assay: Antiproliferative activity against human NCI-H146 cells incubated for 72 hrs; assay type: functional, cell-based; conditions: NCI-H146, 72 h
[3] = Antiproliferative activity against human NCI-H196 cells incubated for 72 hrs; assay type: functional, cell-based; conditions: NCI-H196, 72 h

SMILES	IC50 (NCI-H1048)	IC50 (NCI-H209)	IC50 (NCI-H82)	IC50 (NCI-H446)	IC50 (NCI-H146)	IC50 (SHP77)	IC50 at 72 h [1]	IC50 at 72 h [2]	IC50 [3]
CC(C)(O)C1CCN(Cc2cc3c(cc2-c2cc4ccc5c(c4cn2)OCO5)OCO3)CC1	56.1 µM	64.9 µM	67.4 µM	28.7 µM	> 100 µM	40.4 µM	38.2 µM	30.1 µM	53 µM
FC1CCN(Cc2cc3c(cc2-c2cc4ccc5c(c4cn2)OCO5)OCO3)CC1	> 100 µM	> 100 µM	> 100 µM	97.8 µM	> 100 µM	> 100 µM	> 100 µM	> 100 µM	> 100 µM
CC(O)C1CCN(Cc2cc3c(cc2-c2cc4ccc5c(c4cn2)OCO5)OCO3)CC1 (stereo unspecified)	38.2 µM	62.2 µM	47.7 µM	27.5 µM	24.4 µM	28.4 µM	30.3 µM	21.8 µM	32.3 µM
CCCC1CCN(Cc2cc3c(cc2-c2cc4ccc5c(c4cn2)OCO5)OCO3)CC1	> 100 µM	64.1 µM	> 100 µM	14.5 µM	37 µM	28.2 µM	84.2 µM	> 100 µM	10.2 µM
CN1CCCN(Cc2cc3c(cc2-c2cc4ccc5c(c4cn2)OCO5)OCO3)CC1	32.1 µM	> 50 µM	6.49 µM	10.4 µM	–	22.3 µM	> 100 µM	> 100 µM	19.8 µM
NC(=O)C1CCN(Cc2cc3c(cc2-c2cc4ccc5c(c4cn2)OCO5)OCO3)CC1	38.6 µM	77 µM	63.4 µM	74.1 µM	> 100 µM	41.5 µM	25.1 µM	28.8 µM	57.7 µM
CC(=O)C1CCN(Cc2cc3c(cc2-c2cc4ccc5c(c4cn2)OCO5)OCO3)CC1	> 100 µM	> 100 µM	> 100 µM	49.2 µM	> 100 µM	93.9 µM	> 100 µM	> 100 µM	51.5 µM
FC1CN(Cc2cc3c(cc2-c2cc4ccc5c(c4cn2)OCO5)OCO3)C1	74.1 µM	> 100 µM	> 100 µM	49.8 µM	–	44.9 µM	59 µM	75.6 µM	> 100 µM
CC1(C)CCN(Cc2cc3c(cc2-c2cc4ccc5c(c4cn2)OCO5)OCO3)CC1	> 100 µM	> 100 µM	> 100 µM	55.7 µM	> 100 µM	> 100 µM	> 100 µM	> 100 µM	> 100 µM
CC(C)(C)C1CCN(Cc2cc3c(cc2-c2cc4ccc5c(c4cn2)OCO5)OCO3)CC1	2.68 µM	> 100 µM	2.96 µM	7.1 µM	10.1 µM	8.55 µM	> 100 µM	> 100 µM	7.5 µM
COC(=O)C1CCN(Cc2cc3c(cc2-c2cc4ccc5c(c4cn2)OCO5)OCO3)CC1	60.6 µM	> 100 µM	> 100 µM	65.6 µM	> 100 µM	> 100 µM	–	77.5 µM	> 100 µM
CC1(F)CN(Cc2cc3c(cc2-c2cc4ccc5c(c4cn2)OCO5)OCO3)C1	> 100 µM	> 100 µM	> 100 µM	38.5 µM	–	> 100 µM	> 100 µM	> 100 µM	> 100 µM
O=C1CCC2CCN(Cc3cc4c(cc3-c3cc5ccc6c(c5cn3)OCO6)OCO4)CN12 (stereo unspecified)	> 100 µM	> 100 µM	73.2 µM	49.6 µM	63 µM	36 µM	84.6 µM	> 100 µM	78.2 µM
CC[C@@]1(O)C(=O)OCc2c1cc1n(c2=O)Cc2cc3c(CN(C)C)c(O)ccc3nc2-1 [TOPOTECAN]	> 100 µM	> 100 µM	0.41 µM	22 µM	< 1.56 µM	0.19 µM	0.26 µM	< 0.07 µM	16.3 µM
CC1(O)CCN(Cc2cc3c(cc2-c2cc4ccc5c(c4cn2)OCO5)OCO3)C1 (stereo unspecified)	35.7 µM	72.7 µM	> 100 µM	38.9 µM	20.2 µM	32.4 µM	> 100 µM	39.7 µM	46.4 µM
CC1(CO)CCN(Cc2cc3c(cc2-c2cc4ccc5c(c4cn2)OCO5)OCO3)CC1	29.8 µM	82.6 µM	56.9 µM	65.8 µM	70.3 µM	22.6 µM	37.9 µM	21.2 µM	40.5 µM
COc1ccc2cc3[n+](cc2c1OC)CCc1cc2c(cc1-3)OCO2 [BERBERINE]	> 100 µM	65 µM	–	78.6 µM	> 100 µM	> 100 µM	> 100 µM	> 100 µM	> 100 µM
FC1CCCN(Cc2cc3c(cc2-c2cc4ccc5c(c4cn2)OCO5)OCO3)CC1 (stereo unspecified)	17.7 µM	58.3 µM	37.8 µM	20.6 µM	–	42.4 µM	> 100 µM	33.7 µM	35.7 µM

Second part, led by results:

IC50 (NCI-H1048)	IC50 (NCI-H209)	IC50 (NCI-H82)	IC50 (NCI-H446)	IC50 (NCI-H146)	SMILES	IC50 (SHP77)	IC50 at 72 h [1]	IC50 at 72 h [2]	IC50 [3]
14.1 µM	55.6 µM	27.1 µM	20.2 µM	> 100 µM	c1c(CN2CCCCC2)c(-c2cc3ccc4c(c3cn2)OCO4)cc2c1OCO2	30.2 µM	25.2 µM	21.2 µM	33.7 µM
21.5 µM	30.9 µM	44.2 µM	11.1 µM	12.8 µM	FC1(F)C2CCN(Cc3cc4c(cc3-c3cc5ccc6c(c5cn3)OCO6)OCO4)CC21 (stereo unspecified)	15.8 µM	77.6 µM	10.3 µM	27.4 µM
44.1 µM	53.1 µM	55.6 µM	39.3 µM	37.1 µM	COCC1CCN(Cc2cc3c(cc2-c2cc4ccc5c(c4cn2)OCO5)OCO3)CC1	38.5 µM	48.4 µM	28.2 µM	45.7 µM
20.2 µM	26.8 µM	12.4 µM	16.9 µM	11.7 µM	CN1CCC(C2CCN(Cc3cc4c(cc3-c3cc5ccc6c(c5cn3)OCO6)OCO4)CC2)CC1	15.7 µM	> 100 µM	12.2 µM	31.8 µM
21 µM	47.5 µM	30 µM	45.9 µM	30.9 µM	OC1CCCN(Cc2cc3c(cc2-c2cc4ccc5c(c4cn2)OCO5)OCO3)CC1 (stereo unspecified)	28.4 µM	37.4 µM	21.1 µM	38.7 µM
7.22 µM	30.7 µM	15 µM	12.5 µM	14 µM	CC1(C)CCN(Cc2cc3c(cc2-c2cc4ccc5c(c4cn2)OCO5)OCO3)C1	16.3 µM	24.8 µM	17 µM	13.9 µM
16.8 µM	52.7 µM	29.1 µM	18.7 µM	> 100 µM	c1c(CN2CC3CC3C2)c(-c2cc3ccc4c(c3cn2)OCO4)cc2c1OCO2 (stereo unspecified)	21.3 µM	26.8 µM	23.7 µM	38.9 µM
19.1 µM	45 µM	31.3 µM	39.3 µM	–	FC1(F)CCCN(Cc2cc3c(cc2-c2cc4ccc5c(c4cn2)OCO5)OCO3)CC1	31.3 µM	36.6 µM	24.2 µM	56.4 µM
13.4 µM	25.4 µM	15.9 µM	16.9 µM	33.1 µM	CCC1CCCCN1Cc1cc2c(cc1-c1cc3ccc4c(c3cn1)OCO4)OCO2 (stereo unspecified)	20.8 µM	22.6 µM	20.7 µM	17.1 µM
5.17 µM	26.8 µM	10.2 µM	1.48 µM	15.1 µM	c1c(CN2CCCCCCC2)c(-c2cc3ccc4c(c3cn2)OCO4)cc2c1OCO2	5.09 µM	23 µM	24.3 µM	10.9 µM
18.1 µM	18.1 µM	1.72 µM	1.22 µM	–	CC(C)C1CCCCCN1Cc1cc2c(cc1-c1cc3ccc4c(c3cn1)OCO4)OCO2 (stereo unspecified)	8.23 µM	20.5 µM	26.5 µM	17.9 µM
–	46.5 µM	–	20.6 µM	> 100 µM	c1c(CN2CC3CCC(C2)O3)c(-c2cc3ccc4c(c3cn2)OCO4)cc2c1OCO2	30.8 µM	> 100 µM	57.3 µM	31.3 µM
42.3 µM	48.8 µM	56.2 µM	48.8 µM	–	CC1CCN1Cc1cc2c(cc1-c1cc3ccc4c(c3cn1)OCO4)OCO2 (stereo unspecified)	42.6 µM	33.8 µM	27.7 µM	46.3 µM
15.4 µM	39.5 µM	16.9 µM	15.2 µM	–	c1c(CN2CCCCCC2)c(-c2cc3ccc4c(c3cn2)OCO4)cc2c1OCO2	18 µM	14.4 µM	12.3 µM	24.3 µM
